The test system of data set [1] is blood-brain barrier transporters. Description: Co-administration of inhibitors of blood-brain barrier transporters with URB937. It is filed as in vivo. To be noted: rats, URB937 25 mg-kg^-1 i.p.
The test system of data set [2] is sciatic nerve ligation. Description: Sciatic nerve ligation pain behavior. It is filed as in vivo. The note with it: mice. The source says: Surgery. We performed sciatic nerve ligations in male Swiss mice, as previously described for rats^24 with minor modifications^39.
(§1) Behavioral tests. We measured nocifensive responses elicited by i.p. injection of acetic acid in male Swiss and C57B1/6 (wild-type or FAAH-deficient) mice^40, intraplantar injection of carrageenan in male Swiss mice^20, intraplantar injection of formalin in male Sprague-Dawley rats^41, and sciatic nerve ligation in male Swiss mice^39.
Surgeries All surgeries were conducted under aseptical conditions. Implantation of cannulae for intracerebroventricular (i.c.v.) drug administration. SD rats were anesthesized using a mixture of ketamine (70 mg-kg^−1, i.p.) and xylazine (9.33 mg-kg^−1, i.p.). They were placed in a stereotaxic frame and stabilized by ear bars (David Kopf Instruments, Tujunga, Calif., USA) with the incisor bar set 2.4 mm below the horizontal plane. A 22-gauge stainless-steel guide cannula was implanted into the right lateral cerebral ventricle 7 days prior to experiments. Coordinates for implantation (−0.9 mm antero/posterior and −1.5 mm medio/lateral relative to bregma, and 3.8 mm below the surface of the skull) were determined using the Paxinos and Watson rat brain atlas^45. Guide cannulae were anchored to the skull with 3 stainless-steel screws and dental cement, and were kept patent until injection by insertion of a dummy stylet. […]
Behavioral tests Acetic acid-induced writhing was measured in Swiss mice or C57B1/6 mice (wild-type and FAAH-deficient), as described^40 with minor modifications. […] Abdominal stretches (extension of body and hind limbs) were counted for 20 min, starting 5 min after acetic acid injection. […] Behavior was scored by an observer blinded to the treatment conditions. Formalin-induced nociception was assessed in Sprague-Dawley rats, as described^41. […]

In data set [3] the test system is acetic acid-induced writhing. Description: Acetic acid-induced writhing. Type of data set: in vivo, mice. The protocol: as §1
Behavioral tests Acetic acid-induced writhing was measured in Swiss mice or C57B1/6 mice (wild-type and FAAH-deficient), as described^40 with minor modifications. Briefly, the mice were acclimated to the experimental room for 2 h. Each animal was injected with acetic acid (150 μL, 0.6% in saline) and placed into a glass cylinder. Abdominal stretches (extension of body and hind limbs) were counted for 20 min, starting 5 min after acetic acid injection. […] Behavior was scored by an observer blinded to the treatment conditions. Formalin-induced nociception was assessed in Sprague-Dawley rats, as described^41. The rats were singly housed and kept in a shared holding room under a 12:12 h light:dark cycle. […] Immediately after formalin injection, the rats were returned to the observation container and nocifensive behavior was recorded for 60 min with a video camera. Recordings were analyzed by observers blinded to treatment conditions. Nocifensive behavior was measured continuously for 60 min^41. […] Each 5-min bin was analyzed for time spent (1) lifting and (2) licking or biting the injected paw. Nocifensive behavior was analyzed using the composite pain score weighted scores technique (CPS-WST1,2) calculated for the entire time of observation (0-60 min) and, separately, for the first (0-10 min) and second phase (10-60 min) of the behavioral response^46. The area under the curve (AUC) corresponding to CPS-WST1,2 was calculated using the trapezoidal rule. […] Paw volumes were measured using a plethysmometer (Ugo Basile, Milan, Italy). […] Mechanical hyperalgesia was assessed by measuring the latency(s) to withdraw the paw from a constant mechanical pressure exerted onto its dorsal surface. […]
In general terms: In writhing tests, fewer writhes than in controls are read as antinociception.

Where [4] appears, read: single dose 1 mg-kg^-1, i.p., 2 h before testing, one week after surgery, operated paws.

In the case of `NC(=O)c1cccc(-c2cc(OC(=O)NC3CCCCC3)ccc2O)c1` [Compound 1b, cyclohexylcarbamic acid 3′-carbamoyl-6-hydroxybiphenyl-3-yl ester], the “access of URB937 to the brain with Ko-143” value in data set [1] (co-administration of BCRP inhibitor Ko-143) is on record as “dose-dependent increase”. For the same compound, the “access of URB937 to the brain with verapamil or probenecid” value in data set [1] (co-administration of verapamil or probenecid) is on record as “no such effect”. The “antinociceptive effect of repeated injections after sciatic nerve ligation” value in data set [2] (1 mg-kg^-1, i.p., once daily for 4 days, starting 3 days after ligation) was “undistinguishable from that caused by single drug dosing”. For the same compound, in data set [2] (setting [4]), the “mechanical hyperalgesia and mechanical allodynia after sciatic nerve ligation” value was “suppressed mechanical hyperalgesia and mechanical allodynia”; the “thermal hyperalgesia after sciatic nerve ligation” value is reported as “attenuated thermal hyperalgesia”. Moreover, the “nocifensive behavior when administered alone” value in data set [3] (mice, 1 mg-kg^-1, without acetic acid) is recorded as “no detectable nocifensive behavior”. Besides, in data set [3] (mice, subcutaneous administration, 1 h before acetic acid), the “acetic acid-induced writhing ED50” value was 0.1 mg/kg. Further, in data set [3] (mutant FAAH-deficient mice, 1 mg-kg^-1), the “reduction of acetic acid-induced writhing in FAAH-deficient mice” value is on record as “absent”.

Source of the values: patent US9187413B2, “Peripherally restricted FAAH inhibitors” (The Regents of the University of California, priority 2010, dated 2015).
